pIC50, pKi: −log10 of the molar value. Read-outs that look alike come from different tables or passages of the source.
Key:
[1] = target: T1, rat 5-HT6 stably transfected to HEK293 (Rattus norvegicus, UniProt P31388); test: 5-HT6 receptor binding, [3H]-LSD displacement
T1 construct: expressed in transfected cells; host or cells: HEK293

[2] = target: T2, human 5-HT7 receptor stably transfected to CHO cells (Homo sapiens, UniProt P34969); test: 5-HT7 receptor binding, [3H]-LSD displacement
T2 construct: expressed in transfected cells; host or cells: CHO

[3] = target: 5-HT1b (Homo sapiens, UniProt P28222); test: Binding affinity for serotonin subtype 5-HT1b
[4] = target: 5-HT1d (Homo sapiens, UniProt P28221); test: Binding affinity for serotonin subtype 5-HT1d
[5] = target: 5-HT2b (Homo sapiens, UniProt P41595); test: Binding affinity for serotonin subtype 5-HT2b
[6] = target: T3, 5-HT2c (Homo sapiens, UniProt P28335); test: Binding affinity for serotonin subtype 5-HT2c
T3 sequence (P28335 33-458): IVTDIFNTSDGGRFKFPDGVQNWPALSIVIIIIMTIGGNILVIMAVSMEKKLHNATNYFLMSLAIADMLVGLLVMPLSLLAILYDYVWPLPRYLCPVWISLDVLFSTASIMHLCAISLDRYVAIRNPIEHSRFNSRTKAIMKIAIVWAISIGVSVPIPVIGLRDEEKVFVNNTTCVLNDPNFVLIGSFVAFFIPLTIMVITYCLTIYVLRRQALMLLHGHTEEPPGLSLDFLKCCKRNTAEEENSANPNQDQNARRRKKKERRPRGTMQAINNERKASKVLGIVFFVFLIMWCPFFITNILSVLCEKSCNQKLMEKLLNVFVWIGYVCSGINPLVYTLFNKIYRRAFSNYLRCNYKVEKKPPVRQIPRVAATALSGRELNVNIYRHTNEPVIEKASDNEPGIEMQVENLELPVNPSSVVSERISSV

[7] = target: T4, 5-HT3 (Homo sapiens, UniProt P46098); test: Binding affinity for serotonin subtype 5-HT3
T4 sequence (P46098 24-478): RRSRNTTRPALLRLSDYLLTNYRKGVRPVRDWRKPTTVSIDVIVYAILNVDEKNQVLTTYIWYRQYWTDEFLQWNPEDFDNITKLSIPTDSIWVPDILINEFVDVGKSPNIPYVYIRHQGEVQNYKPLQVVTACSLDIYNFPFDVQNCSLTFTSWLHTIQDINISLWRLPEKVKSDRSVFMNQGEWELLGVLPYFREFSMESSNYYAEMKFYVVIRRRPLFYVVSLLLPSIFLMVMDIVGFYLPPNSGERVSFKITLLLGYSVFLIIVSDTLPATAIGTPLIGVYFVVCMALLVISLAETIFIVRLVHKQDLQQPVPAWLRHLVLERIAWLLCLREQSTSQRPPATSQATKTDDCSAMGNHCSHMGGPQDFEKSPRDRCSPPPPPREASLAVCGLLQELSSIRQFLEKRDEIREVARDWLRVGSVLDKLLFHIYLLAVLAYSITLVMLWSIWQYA

[8] = target: 5-HT4 (Homo sapiens, UniProt Q13639); test: Binding affinity for serotonin subtype 5-HT4
[9] = target: 5-HT5a (Homo sapiens, UniProt P47898); test: Binding affinity for serotonin subtype 5-HT5a
[10] = target: 5-HT transporter (Homo sapiens, UniProt P31645); test: Binding affinity for 5-HT transporter
[11] = target: alpha1a adrenergic (Homo sapiens, UniProt P35348); test: Receptor panel binding: alpha1a adrenergic
[12] = target: D1 dopaminergic (Homo sapiens, UniProt P21728); test: Receptor panel binding: D1 dopaminergic
[13] = target: D2 dopaminergic (Homo sapiens, UniProt P14416); test: Receptor panel binding: D2 dopaminergic
[14] = target: D3 dopaminergic (Homo sapiens, UniProt P35462); test: Receptor panel binding: D3 dopaminergic
[15] = target: T5, D4,4 dopaminergic (Homo sapiens, UniProt P21917); test: Receptor panel binding: D4,4 dopaminergic
T5 sequence (P21917 1-419): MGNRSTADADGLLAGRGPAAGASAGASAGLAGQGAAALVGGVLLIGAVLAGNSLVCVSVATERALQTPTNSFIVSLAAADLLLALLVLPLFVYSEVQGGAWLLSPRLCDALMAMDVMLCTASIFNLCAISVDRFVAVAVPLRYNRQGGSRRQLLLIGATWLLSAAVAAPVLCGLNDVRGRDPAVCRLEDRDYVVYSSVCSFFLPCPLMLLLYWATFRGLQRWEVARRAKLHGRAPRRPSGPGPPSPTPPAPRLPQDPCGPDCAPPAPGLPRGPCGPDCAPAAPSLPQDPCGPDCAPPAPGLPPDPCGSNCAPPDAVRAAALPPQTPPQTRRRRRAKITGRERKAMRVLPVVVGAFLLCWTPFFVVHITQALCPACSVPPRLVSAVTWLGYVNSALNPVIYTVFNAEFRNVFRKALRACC

[16] = target: D5 dopaminergic (Homo sapiens, UniProt P21918); test: Receptor panel binding: D5 dopaminergic
[17] = target: H1 histaminergic (Homo sapiens, UniProt P35367); test: Receptor panel binding: H1 histaminergic
[18] = target: V1a of vasopressin (Homo sapiens, UniProt P37288); test: Receptor panel binding: vasopressin V1a
[19] = target: V1b of vasopressin (Homo sapiens, UniProt P47901); test: Receptor panel binding: vasopressin V1b
[20] = target: V2 of vasopressin (Homo sapiens, UniProt P30518); test: Receptor panel binding: vasopressin V2
[21] = target: NA transporter (Homo sapiens, UniProt P23975); test: Receptor panel binding: NA transporter
[22] = target: DA transporter (Homo sapiens, UniProt Q01959); test: Receptor panel binding: DA transporter

T1 sequence (P31388 whole entry): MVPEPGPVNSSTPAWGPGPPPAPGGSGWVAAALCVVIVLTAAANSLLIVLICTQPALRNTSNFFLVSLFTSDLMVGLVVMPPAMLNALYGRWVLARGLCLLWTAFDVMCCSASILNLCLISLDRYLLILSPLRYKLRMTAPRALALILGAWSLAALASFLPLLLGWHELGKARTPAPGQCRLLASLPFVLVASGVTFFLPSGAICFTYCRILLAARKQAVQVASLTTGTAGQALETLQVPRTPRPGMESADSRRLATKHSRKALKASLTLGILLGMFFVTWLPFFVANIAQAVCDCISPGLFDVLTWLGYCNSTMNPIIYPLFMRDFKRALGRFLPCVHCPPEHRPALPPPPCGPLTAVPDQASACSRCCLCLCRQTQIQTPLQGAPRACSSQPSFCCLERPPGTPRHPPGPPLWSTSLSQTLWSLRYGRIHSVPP
T2 sequence (P34969 whole entry): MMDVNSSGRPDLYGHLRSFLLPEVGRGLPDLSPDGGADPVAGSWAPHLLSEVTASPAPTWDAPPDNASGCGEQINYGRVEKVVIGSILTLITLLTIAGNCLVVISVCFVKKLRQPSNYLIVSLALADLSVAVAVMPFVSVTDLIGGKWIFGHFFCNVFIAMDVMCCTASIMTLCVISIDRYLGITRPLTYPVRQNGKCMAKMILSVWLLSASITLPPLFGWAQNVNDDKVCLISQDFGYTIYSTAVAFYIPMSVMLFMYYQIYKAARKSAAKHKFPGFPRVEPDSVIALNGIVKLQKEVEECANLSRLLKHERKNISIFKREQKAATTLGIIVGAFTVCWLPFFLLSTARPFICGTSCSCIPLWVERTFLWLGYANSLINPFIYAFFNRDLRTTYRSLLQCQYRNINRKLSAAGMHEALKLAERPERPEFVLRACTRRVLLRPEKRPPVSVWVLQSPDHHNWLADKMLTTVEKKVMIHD
H1 histaminergic, sequence (P35367 whole entry): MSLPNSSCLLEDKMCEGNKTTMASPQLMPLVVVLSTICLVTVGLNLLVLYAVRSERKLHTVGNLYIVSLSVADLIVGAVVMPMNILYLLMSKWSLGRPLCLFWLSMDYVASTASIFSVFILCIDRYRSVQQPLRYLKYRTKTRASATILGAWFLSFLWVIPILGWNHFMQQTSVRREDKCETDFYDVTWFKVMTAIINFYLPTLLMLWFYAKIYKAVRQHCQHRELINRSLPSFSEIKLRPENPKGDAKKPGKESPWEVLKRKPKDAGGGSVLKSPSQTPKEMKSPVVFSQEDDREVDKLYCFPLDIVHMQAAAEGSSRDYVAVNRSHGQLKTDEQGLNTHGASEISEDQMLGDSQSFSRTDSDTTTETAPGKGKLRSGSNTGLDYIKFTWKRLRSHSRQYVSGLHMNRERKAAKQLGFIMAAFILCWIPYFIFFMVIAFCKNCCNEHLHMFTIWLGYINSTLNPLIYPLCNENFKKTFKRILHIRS
D1 dopaminergic, sequence (P21728 whole entry): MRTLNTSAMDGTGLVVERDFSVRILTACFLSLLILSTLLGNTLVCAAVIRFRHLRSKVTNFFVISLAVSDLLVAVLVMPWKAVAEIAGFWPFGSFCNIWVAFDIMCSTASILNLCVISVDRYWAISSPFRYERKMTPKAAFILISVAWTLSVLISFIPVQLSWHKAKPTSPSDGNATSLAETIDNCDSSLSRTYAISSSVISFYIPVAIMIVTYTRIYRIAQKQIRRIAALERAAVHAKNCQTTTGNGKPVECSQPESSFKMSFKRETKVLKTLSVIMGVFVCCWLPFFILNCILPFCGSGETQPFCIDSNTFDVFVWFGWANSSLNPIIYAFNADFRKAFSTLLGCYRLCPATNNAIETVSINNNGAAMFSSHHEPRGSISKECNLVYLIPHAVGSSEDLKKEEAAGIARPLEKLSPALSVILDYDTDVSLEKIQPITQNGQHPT
D5 dopaminergic, sequence (P21918 whole entry): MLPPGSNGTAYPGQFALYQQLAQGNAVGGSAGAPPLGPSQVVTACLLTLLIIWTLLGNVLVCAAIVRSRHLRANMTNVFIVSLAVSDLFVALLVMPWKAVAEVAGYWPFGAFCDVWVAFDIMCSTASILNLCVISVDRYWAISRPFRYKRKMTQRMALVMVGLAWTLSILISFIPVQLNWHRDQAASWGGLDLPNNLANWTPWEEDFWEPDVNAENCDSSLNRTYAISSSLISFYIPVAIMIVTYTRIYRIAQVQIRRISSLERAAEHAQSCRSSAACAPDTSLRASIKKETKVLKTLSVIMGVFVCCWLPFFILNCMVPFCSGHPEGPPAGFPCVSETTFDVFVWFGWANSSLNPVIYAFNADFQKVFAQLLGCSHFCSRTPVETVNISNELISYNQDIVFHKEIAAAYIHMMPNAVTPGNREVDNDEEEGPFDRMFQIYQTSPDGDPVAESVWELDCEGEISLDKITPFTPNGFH
5-HT1b, sequence (P28222 whole entry, species assumed): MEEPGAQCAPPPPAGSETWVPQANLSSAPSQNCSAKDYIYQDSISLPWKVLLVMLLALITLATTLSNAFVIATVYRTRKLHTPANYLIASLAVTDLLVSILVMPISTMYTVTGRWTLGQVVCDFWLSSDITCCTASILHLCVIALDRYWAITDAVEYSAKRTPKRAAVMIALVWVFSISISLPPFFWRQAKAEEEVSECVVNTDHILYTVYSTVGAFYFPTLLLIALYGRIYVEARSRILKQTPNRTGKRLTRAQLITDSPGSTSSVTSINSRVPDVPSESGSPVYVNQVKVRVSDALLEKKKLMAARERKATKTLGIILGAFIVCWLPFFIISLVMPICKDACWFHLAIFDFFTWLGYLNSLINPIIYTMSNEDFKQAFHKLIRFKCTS
V2 of vasopressin, sequence (P30518 whole entry): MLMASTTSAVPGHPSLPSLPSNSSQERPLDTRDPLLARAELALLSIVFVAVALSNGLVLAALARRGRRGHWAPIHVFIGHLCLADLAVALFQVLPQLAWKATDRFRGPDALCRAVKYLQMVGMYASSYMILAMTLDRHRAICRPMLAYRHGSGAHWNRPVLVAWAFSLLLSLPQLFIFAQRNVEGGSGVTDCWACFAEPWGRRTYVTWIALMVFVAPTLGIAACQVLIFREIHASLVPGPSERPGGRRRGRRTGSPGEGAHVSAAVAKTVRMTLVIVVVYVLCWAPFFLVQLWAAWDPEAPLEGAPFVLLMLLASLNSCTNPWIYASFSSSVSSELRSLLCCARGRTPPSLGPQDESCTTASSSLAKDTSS
5-HT1d, sequence (P28221 whole entry, species assumed): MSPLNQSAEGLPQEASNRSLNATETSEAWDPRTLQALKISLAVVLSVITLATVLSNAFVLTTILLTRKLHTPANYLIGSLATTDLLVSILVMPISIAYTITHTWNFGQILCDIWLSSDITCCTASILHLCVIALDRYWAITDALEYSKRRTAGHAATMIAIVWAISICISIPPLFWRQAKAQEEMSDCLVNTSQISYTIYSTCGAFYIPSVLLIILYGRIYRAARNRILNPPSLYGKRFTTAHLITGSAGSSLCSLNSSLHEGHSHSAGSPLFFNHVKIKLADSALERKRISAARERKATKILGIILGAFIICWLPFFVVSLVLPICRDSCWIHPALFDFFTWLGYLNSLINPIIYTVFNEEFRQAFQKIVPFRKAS
NA transporter, sequence (P23975 whole entry): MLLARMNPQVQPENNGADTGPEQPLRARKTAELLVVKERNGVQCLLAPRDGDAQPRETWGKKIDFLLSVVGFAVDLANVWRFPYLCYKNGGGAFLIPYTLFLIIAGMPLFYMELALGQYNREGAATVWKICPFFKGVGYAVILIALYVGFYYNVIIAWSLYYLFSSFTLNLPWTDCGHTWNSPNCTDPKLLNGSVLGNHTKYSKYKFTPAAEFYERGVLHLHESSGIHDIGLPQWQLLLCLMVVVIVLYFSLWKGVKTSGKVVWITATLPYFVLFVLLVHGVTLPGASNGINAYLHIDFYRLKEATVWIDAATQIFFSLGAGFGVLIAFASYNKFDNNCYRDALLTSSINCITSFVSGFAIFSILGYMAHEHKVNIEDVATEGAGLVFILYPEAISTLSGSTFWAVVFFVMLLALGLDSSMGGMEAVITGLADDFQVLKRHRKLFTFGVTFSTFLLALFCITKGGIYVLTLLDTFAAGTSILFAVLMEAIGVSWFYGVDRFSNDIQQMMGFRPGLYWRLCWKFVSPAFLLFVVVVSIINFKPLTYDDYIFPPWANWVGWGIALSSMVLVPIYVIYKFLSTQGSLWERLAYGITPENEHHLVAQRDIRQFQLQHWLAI
alpha1a adrenergic, sequence (P35348 whole entry): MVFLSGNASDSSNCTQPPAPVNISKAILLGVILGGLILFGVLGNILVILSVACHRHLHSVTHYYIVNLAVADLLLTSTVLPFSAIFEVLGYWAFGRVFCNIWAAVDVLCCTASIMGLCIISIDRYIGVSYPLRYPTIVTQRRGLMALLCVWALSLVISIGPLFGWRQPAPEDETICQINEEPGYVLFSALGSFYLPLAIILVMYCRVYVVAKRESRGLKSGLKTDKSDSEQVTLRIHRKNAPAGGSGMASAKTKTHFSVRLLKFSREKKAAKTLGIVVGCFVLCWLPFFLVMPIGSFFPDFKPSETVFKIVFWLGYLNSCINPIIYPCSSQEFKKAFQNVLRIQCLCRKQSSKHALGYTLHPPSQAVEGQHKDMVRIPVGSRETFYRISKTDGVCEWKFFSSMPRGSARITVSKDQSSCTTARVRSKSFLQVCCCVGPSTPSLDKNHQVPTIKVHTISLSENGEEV
V1a of vasopressin, sequence (P37288 whole entry): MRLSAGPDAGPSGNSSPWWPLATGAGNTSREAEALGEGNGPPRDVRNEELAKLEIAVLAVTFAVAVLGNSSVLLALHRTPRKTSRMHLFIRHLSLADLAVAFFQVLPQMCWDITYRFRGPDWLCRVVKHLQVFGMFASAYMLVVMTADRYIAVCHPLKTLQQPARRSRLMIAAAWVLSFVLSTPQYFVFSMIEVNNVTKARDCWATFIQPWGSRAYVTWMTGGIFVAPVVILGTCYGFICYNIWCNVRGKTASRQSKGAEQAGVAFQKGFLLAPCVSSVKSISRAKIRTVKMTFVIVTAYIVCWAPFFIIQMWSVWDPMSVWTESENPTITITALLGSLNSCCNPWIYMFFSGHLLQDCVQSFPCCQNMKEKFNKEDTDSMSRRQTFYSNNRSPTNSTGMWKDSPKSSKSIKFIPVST

Compound | 5-HT6 binding affinity compared with Serotonin (in words) [1] | pIC50 [1] | pKi [1] | affinity for rat recombinant 5-HT6 receptor (in words) [1] | pIC50 [2] | pKi [2] | affinity for human recombinant 5-HT7 receptor (in words) [2] | pKi [3] | pKi [4] | pKi [5] | pKi [6] | pKi [7] | pKi [8] | pKi [9] | pKi [10] | pKi [11] | pKi [12] | pKi [13] | pKi [14] | pKi [15] | also measured
Cc1[nH]c2ccc(Cl)cc2c1CCN(C)C [ST 1936, 5-chloro-2-methyl-N,N-dimethyltryptamine] | greater than that observed for Serotonin | 7.21 | 7.51 | high affinity | 6.28 | 6.77 | moderate | < 6.00 | < 6.00 | < 6.00 | < 6.00 | < 6.00 | < 6.00 | < 6.00 | < 6.00 | ≤ 6.00 | ≤ 6.00 | ≤ 6.00 | ≤ 6.00 | ≤ 6.00 | pKi [16]: ≤ 6.00; pKi [17]: ≤ 6.00; pKi [18]: ≤ 6.00; pKi [19]: ≤ 6.00; pKi [20]: ≤ 6.00; pKi [21]: ≤ 6.00; pKi [22]: ≤ 6.00; melting point: 126 to 127 °C
CCc1[nH]c2ccc(Cl)cc2c1CCN(C)C [ST 2253, 5-Chloro-2-ethyl-N,N-dimethyltryptamine] | greater than that observed for Serotonin | 7.28 | 7.59 | high affinity | < 6.00 | < 6.00 | negligible | < 6.00 | < 6.00 | 7.08 | < 6.00 | < 6.00 | < 6.00 | < 6.00 | < 6.00 | ≤ 6.00 | ≤ 6.00 | ≤ 6.00 | ≤ 6.00 | ≤ 6.00 | selectivity of binding for 5-HT6 receptor (in words) ([1]; over other serotonin sites and other neurotransmitter receptors): selective affinity for 5-HT6 receptor; Ki ([2]; read-out: Affinity (Ki) 5-HT7, Table 2, cell printed in μM): > 1 µM; pKi [16]: ≤ 6.00; pKi [17]: ≤ 6.00; pKi [18]: ≤ 6.00; pKi [19]: ≤ 6.00; pKi [20]: ≤ 6.00; pKi [21]: ≤ 6.00; pKi [22]: ≤ 6.00; melting point: 188 °C (dec.)

Source: US7098233B2 (priority 2001, dated 2006)
